Consider 35 compounds from PubChem BioAssay (NCI).

Structures are written as SMILES. Where “and” joins values, the source holds several entries; their conditions need not be identical. Identical values can stand only once.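 The compound was tested at five concentrations on cells cultured in 96-well plates, with a 48-hour exposure period. GI50 = concentration required for 50% inhibition of growth. TGI marks complete inhibition of growth.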

Test systems include DMS 114 small cell lung; RXF-631 renal; XF 498 CNS; MDA-MB-435; HOP-18 NSCLC; MDA-N.
Holding throughout (test): NCI tumour cell line growth inhibition, 48 h

In the case of `CCC(O)(c1ccc(OC)cc1)C(c1ccc(OCc2ccccc2)cc1)c1ccc(OCc2ccccc2)cc1` (stereo unspecified), the TGI in the assay with DMS 114 small cell lung, with RXF-631 renal and with XF 498 CNS was greater than 100 µM throughout.
For the compound `Cc1cccc2c1NC(=O)[C@@]21[C@H](C(=O)c2ccccc2)[C@]2(C(=O)Nc3ccccc32)[C@H]2CCCN21`, in the assay on MDA-MB-435, the GI50 is 94.7 µM and the TGI was greater than 100 µM.
In the case of `O=C1NC(=O)C(=O)C(c2nc3ccccc3s2)C1=O`, the TGI in the assay with DMS 114 small cell lung, in the assay with HOP-18 NSCLC and in the assay with XF 498 CNS was greater than 100 µM throughout.
Turning to `COc1ccc(-c2nc(N)c3ncn(C4OC(CO)C(O)C4O)c3n2)cc1` (stereo unspecified), the TGI in the assay on MDA-MB-435 and in the assay with MDA-N was greater than 100 µM throughout.
Regarding `O=C(c1cc2c(C(F)(F)F)onc2c2ccccc12)C(F)(F)F`, the TGI is 10.9 µM in the assay with DMS 114 small cell lung, greater than 100 µM in the assay with HOP-18 NSCLC and 80.1 µM in the assay on RXF-631 renal.
`COC1CC2C=CC3C4OC2(/C(C)=C/C(C)C(C(C)O)OC1=O)C3C(O)C(C)C4OC(=O)c1ccc[nH]1` (stereo unspecified): the TGI in the assay with MDA-MB-435 and with MDA-N was greater than 100 µM each time.
For `O=C1/C=C/[C@@H](O)[C@@H]2C[C@@H](O)C[C@H]2/C=C/CCC[C@H](CO)O1`, in the assay on MDA-MB-435, the GI50 is 2.91 µM and the TGI was greater than 100 µM.
In the same order, the values of `N/C(=N\c1nc2ccccc2s1)NC(=O)Nc1ccccc1Cl` are 0.0269 µM and 0.0868 µM.
The like results for `N=C1C(c2nc3ccccc3s2)=C(O)CN1c1ccc(Cl)cc1Cl` were, in that order, 16.5 µM and greater than 100 µM.
`COc1cc2c(Nc3ccc(Br)cc3F)ncnc2cc1OCC1CCN(C)CC1`: in the assay with MDA-MB-435, the GI50 is 1.74 µM and 3.81 µM; the TGI is 3.61 µM and > 10 µM.
As for `Cc1ccc(C(=O)CCC2C(=O)CC(C)(C)CC2=O)cc1`, the TGI with MDA-MB-435 and in the assay with MDA-N was greater than 100 µM each time.
As to `CNC(=O)c1cncc(/C=C/c2c(C)cccc2C)c1`, in the assay on MDA-MB-435, the GI50 is greater than 25 µM and the TGI was greater than 25 µM.
As to `Cc1ccc(NC(=O)CC/C(CC(=O)c2ccc(Cl)cc2)=N\NC(=O)C(=O)NN)cc1C`, the TGI in the assay on DMS 114 small cell lung, with HOP-18 NSCLC and with XF 498 CNS was greater than 100 µM each time.
Take `N#CC(C(=O)CCC(=O)Nc1ccc(Cl)cc1)c1ccccc1Cl` (stereo unspecified): the TGI in the assay on DMS 114 small cell lung, in the assay with RXF-631 renal and in the assay on XF 498 CNS was greater than 100 µM in each case.
In the case of `NCC1OC(n2cnc3c(=O)[nH]c(N)nc32)C(O)C1O` (stereo unspecified), the TGI in the assay on MDA-MB-435 and in the assay on MDA-N was greater than 100 µM throughout.
As for `COc1ccc(C(=O)C(Br)C(Br)C(=O)O)cc1` (stereo unspecified), the TGI in the assay on MDA-MB-435 and in the assay on MDA-N was greater than 100 µM throughout.
Regarding `COc1c(B(O)O)cccc1-c1nc2c(F)cc3[nH]ncc3c2c2c1CCCC2`, in the assay with MDA-MB-435, the GI50 was 0.287 µM and the TGI stood at 2.06 µM.
The like results for `O=S(=O)(NCCCNc1cc(-c2cn(-c3ccccc3)nc2-c2cccc(O)c2)ccn1)c1cccc2ccccc12` were, in that order, 3.48 µM and 37.4 µM.
On to `COc1cc([C@@H]2c3cc4c(cc3[C@H](OC(C)=O)[C@H]3COC(=O)[C@H]23)OCO4)cc(OC)c1OC`, for which, in the assay with MDA-MB-435, the GI50 is 0.0192 µM and the TGI stood at 0.0533 µM.
With `CC([C@H]1CCC2C3CCC4CC5(CC[C@]4(C)C3CC[C@@]21C)c1ccccc1C(=O)N5C)N(C)C` (stereo partly specified), the TGI in the assay on DMS 114 small cell lung and in the assay with HOP-18 NSCLC was greater than 100 µM throughout.
`CCN(CC)C(=O)CNC(=O)OC(C)(C)C` came in with a TGI in the assay on DMS 114 small cell lung greater than 100 µM.
For the compound `CN(C)Cc1cccc(CN(C)C)[c]1[Sn]([Br])([c]1ccccc1)[c]1ccccc1`, the GI50 in the assay on MDA-MB-435 was 17.1 µM; in the assay on MDA-N, 16.6 µM. Also, the TGI with MDA-MB-435 came to 41.6 µM; in the assay with MDA-N, 38.8 µM.
On to `C=C1SC(=Nc2ccccc2Cl)N(C(=O)c2sc3ccccc3c2Cl)C1(C)C`, for which, in the assay on MDA-MB-435, the GI50 was 17.3 µM and the TGI is 97 µM.
As to `O=c1ccccc(-c2ccc(-c3ccco3)cc2)c1O`, in the assay on MDA-MB-435, the GI50 was 1.85 µM and the TGI is greater than 100 µM.
Take `N#C/C(=C/C=C/c1ccccc1)S(=O)c1ccccc1` (stereo unspecified): in the assay with MDA-MB-435, the GI50 was 0.485 µM and the TGI was 1.83 µM.
In the same order, the values of `O=C1C(Cl)=C(Nc2cccc(O)c2)C(=O)N1c1cccc(Cl)c1` are 43 µM and greater than 100 µM.
Consider `O=C(COc1ccc(Cl)cc1)N1N=C(c2ccc([N+](=O)[O-])o2)CC1(O)c1ccccc1` (stereo unspecified), for which the figures for the TGI with RXF-631 renal and in the assay with XF 498 CNS were 24.9 µM and 22.3 µM, respectively.
`COc1ccccc1N1CCN(C(=O)c2ccc(NS(=O)(=O)c3cccc4cccnc34)cc2)CC1`: in the assay on MDA-MB-435, the GI50 is greater than 100 µM and the TGI was greater than 100 µM.
As for `O=C(NC1CCN(Cc2ccccc2)CC1)c1cc(C(=O)NC2CCN(Cc3ccccc3)CC2)cc(C(=O)NC2CCN(Cc3ccccc3)CC2)c1`, in the assay with MDA-MB-435, the GI50 is 0.923 µM and the TGI was determined as 1.85 µM.
The like results for `CC(C)(C)N1CC(OC(N)=O)C1` were, in that order, greater than 100 µM and greater than 100 µM.
In the same order, the values of `O=C1c2cccc3cc([N+](=O)[O-])cc(c23)C(=O)N1CCN1CCCC1` are 1.31 µM and 2.99 µM.
Regarding `COC1OC(CBr)C(OC(c2ccccc2)(c2ccccc2)c2ccccc2)C(OC(c2ccccc2)(c2ccccc2)c2ccccc2)C1OC(c1ccccc1)(c1ccccc1)c1ccccc1` (stereo unspecified), the TGI in the assay on MDA-MB-435 and in the assay with MDA-N was greater than 100 µM throughout.
In the case of `COc1ccc(-c2csc(NC(=O)N3CCN(c4cc5c(cc4F)c(=O)c(C(=O)O)cn5C4CC4)CC3)n2)cc1`, in the assay with MDA-MB-435, the GI50 was 2.54 µM and the TGI was greater than 100 µM.
For the compound `O=C(O)CN(c1ccccc1)S(=O)(=O)c1ccc(Cl)cc1`, the TGI in the assay on HOP-18 NSCLC and with RXF-631 renal was greater than 100 µM throughout.
Take `CCn1cc(C(=O)N/N=C/c2cccc(F)c2)c(=O)c2cc(F)c(N3CCNC(C)C3)c(F)c21` (stereo unspecified): in the assay with MDA-MB-435, the GI50 is 1.71 µM and the TGI worked out at 3.12 µM.
